Experimental data taken from patent publication US8192962B2, “Processes for detecting toxic substances” (Daikin Industries, Ltd., priority 2001, dated 2012).

Tested on: Stress protein genes
Assay: DNA chip mRNA expression in yeast, stress protein genes (Table 6)
Type: cell-based, Saccharomyces cerevisiae S288C
Procedure: Yeast (Saccharomyces cerevisiae S288C (α SUC2mal mel gap2 CUP1)) were incubated at 25° C. on YPD medium (yeast extract 1%, polypepton 2%, glucose 2%). One of toxic chemical substances was added to the cells at logarithmic growth phase, and the cells were further incubated for two hours. Cells were cultured without any chemical substance in the same condition, and were used as control. Concentrations of the chemical substances were defined to inhibit the growth of the yeast but not lead to death.
After completion of the incubation, the culture was centrifuged to collect the cells. To the cells, sodium acetate buffer (50 mM sodium acetate, 10 mM EDTA, 1% SDS) was added, and the mixture was shaken at 65° C. for five minutes, followed by returning to room temperature, and obtaining the supernatant, of which the procedures were repeated two times. To the supernatant, ½ amount of a solution of phenol/chloroform was added, and the mixture was centrifuged to give a supernatant, which was added with an equal amount of chloroform, and the mixture was centrifuged to give a supernatant. To the supernatant, an equal amount of isopropanol containing 0.3 M sodium acetate was added, and the mixture was allowed to stand at room temperature for 30 minutes, after which the mixture was centrifuged to give a sediment of the whole RNAs. Seventy % ethanol was added to the sediment, and the mixture was again centrifuged to give a sediment, which was then dried and dissolved in water. mRNA was isolated from the whole RNAs as followings. In view of the fact that a poly A chain is attached to the 3′ terminus of mRNA, a polynucleotide having a poly T structure which was immobilized on the surface of latex beads was used to trap the mRNA, and then the mRNA was washed and eluted with spine column (Oligotex-dT30<Super>mRNA Purification Kit, Takara). Reverse transcription of the mRNA was conducted with a reverse transcriptase (Super Script II Reverse Transcriptase; catalogue No. 18064-014, GibcoBRL) using fluorescence-labeled nucleotides to give cDNAs that were introduced with Cy3-dUTP or Cy5-dUTP during the reverse transcription.
The labeled cDNAs were dissolved in TE buffer (10mM Tris-HCl/1 mM EDTA, pH8.0), and the solution was dropped on the DNA chip containing the whole genes of yeast (DNA Chip Research Inc. Japan) so that the cDNAs were hybridized on the DNA chip at 65° C. for over 12 hours. The fluoresces intensity of the DNA chip was read with a scanner, and the ratio relative to the fluorescence intensity resulting from the absence of chemical substance was estimated as the following, which is shown in Tables 1 to 9: […]

CCCCCCCCCCCCOS(=O)(=O)[O-].[Na+] [(18), sodium lauryl sulfate]
The level of expressed mRNA in the presence of chemical substance/The level of expressed mRNA in the absence of chemical substance (yeast gene YIL033C): 1.2 | The level of expressed mRNA in the presence of chemical substance/The level of expressed mRNA in the absence of chemical substance (yeast gene YIR037W): 2.9 | The level of expressed mRNA in the presence of chemical substance/The level of expressed mRNA in the absence of chemical substance (yeast gene YIR038C): 2.0 | The level of expressed mRNA in the presence of chemical substance/The level of expressed mRNA in the absence of chemical substance (yeast gene YJL128C): 1.0 | The level of expressed mRNA in the presence of chemical substance/The level of expressed mRNA in the absence of chemical substance (yeast gene YJL158C): 1.4 | The level of expressed mRNA in the presence of chemical substance/The level of expressed mRNA in the absence of chemical substance (yeast gene YJL159W): 0.9 | The level of expressed mRNA in the presence of chemical substance/The level of expressed mRNA in the absence of chemical substance (yeast gene YJL165C): 1.8 | The level of expressed mRNA in the presence of chemical substance/The level of expressed mRNA in the absence of chemical substance (yeast gene YJR045C): 0.9 | The level of expressed mRNA in the presence of chemical substance/The level of expressed mRNA in the absence of chemical substance (yeast gene YJR090C): 1.0 | The level of expressed mRNA in the presence of chemical substance/The level of expressed mRNA in the absence of chemical substance (yeast gene YKL161C): 1.9 | The level of expressed mRNA in the presence of chemical substance/The level of expressed mRNA in the absence of chemical substance (yeast gene YKL163W): 1.0 | The level of expressed mRNA in the presence of chemical substance/The level of expressed mRNA in the absence of chemical substance (yeast gene YKL164C): 0.8 | The level of expressed mRNA in the presence of chemical substance/The level of expressed mRNA in the absence of chemical substance (yeast gene YKL210W): 1.1 | The level of expressed mRNA in the presence of chemical substance/The level of expressed mRNA in the absence of chemical substance (yeast gene YKR053C): 2.4 | The level of expressed mRNA in the presence of chemical substance/The level of expressed mRNA in the absence of chemical substance (yeast gene YLL024C): 0.6 | The level of expressed mRNA in the presence of chemical substance/The level of expressed mRNA in the absence of chemical substance (yeast gene YLL026W): 2.5 | The level of expressed mRNA in the presence of chemical substance/The level of expressed mRNA in the absence of chemical substance (yeast gene YLL039C): 2.1 | The level of expressed mRNA in the presence of chemical substance/The level of expressed mRNA in the absence of chemical substance (yeast gene YLL060C): 2.3 | The level of expressed mRNA in the presence of chemical substance/The level of expressed mRNA in the absence of chemical substance (yeast gene YLR006C): 1.0 | The level of expressed mRNA in the presence of chemical substance/The level of expressed mRNA in the absence of chemical substance (yeast gene YLR109W): 1.2 | The level of expressed mRNA in the presence of chemical substance/The level of expressed mRNA in the absence of chemical substance (yeast gene YLR259C): 1.0 | The level of expressed mRNA in the presence of chemical substance/The level of expressed mRNA in the absence of chemical substance (yeast gene YML007W): 1.4 | The level of expressed mRNA in the presence of chemical substance/The level of expressed mRNA in the absence of chemical substance (yeast gene YML070W): 1.3 | The level of expressed mRNA in the presence of chemical substance/The level of expressed mRNA in the absence of chemical substance (yeast gene YMR021C): 3.4 | The level of expressed mRNA in the presence of chemical substance/The level of expressed mRNA in the absence of chemical substance (yeast gene YMR173W): 1.8 | The level of expressed mRNA in the presence of chemical substance/The level of expressed mRNA in the absence of chemical substance (yeast gene YMR186W): 1.1 | The level of expressed mRNA in the presence of chemical substance/The level of expressed mRNA in the absence of chemical substance (yeast gene YNL064C): 0.7 | The level of expressed mRNA in the presence of chemical substance/The level of expressed mRNA in the absence of chemical substance (yeast gene YNL160W): 1.0 | The level of expressed mRNA in the presence of chemical substance/The level of expressed mRNA in the absence of chemical substance (yeast gene YNL241C): 1.0 | The level of expressed mRNA in the presence of chemical substance/The level of expressed mRNA in the absence of chemical substance (yeast gene YNR076W): 0.8 | The level of expressed mRNA in the presence of chemical substance/The level of expressed mRNA in the absence of chemical substance (yeast gene YOL064C): 1.3 | The level of expressed mRNA in the presence of chemical substance/The level of expressed mRNA in the absence of chemical substance (yeast gene YOL161C): 1.0 | The level of expressed mRNA in the presence of chemical substance/The level of expressed mRNA in the absence of chemical substance (yeast gene YOR008C): 1.3 | The level of expressed mRNA in the presence of chemical substance/The level of expressed mRNA in the absence of chemical substance (yeast gene YOR009W): 0.8 | The level of expressed mRNA in the presence of chemical substance/The level of expressed mRNA in the absence of chemical substance (yeast gene YOR010C): 0.6 | The level of expressed mRNA in the presence of chemical substance/The level of expressed mRNA in the absence of chemical substance (yeast gene YOR027W): 0.8 | The level of expressed mRNA in the presence of chemical substance/The level of expressed mRNA in the absence of chemical substance (yeast gene YOR208W): 1.6 | The level of expressed mRNA in the presence of chemical substance/The level of expressed mRNA in the absence of chemical substance (yeast gene YPL059W): 1.3 | The level of expressed mRNA in the presence of chemical substance/The level of expressed mRNA in the absence of chemical substance (yeast gene YPL106C): 0.5 | The level of expressed mRNA in the presence of chemical substance/The level of expressed mRNA in the absence of chemical substance (yeast gene YPL140C): 1.4 | The level of expressed mRNA in the presence of chemical substance/The level of expressed mRNA in the absence of chemical substance (yeast gene YPL194W): 0.8 | The level of expressed mRNA in the presence of chemical substance/The level of expressed mRNA in the absence of chemical substance (yeast gene YPL223C): 1.3 | The level of expressed mRNA in the presence of chemical substance/The level of expressed mRNA in the absence of chemical substance (yeast gene YPL240C): 1.0 | The level of expressed mRNA in the presence of chemical substance/The level of expressed mRNA in the absence of chemical substance (yeast gene YPR005C): 1.1 | The level of expressed mRNA in the presence of chemical substance/The level of expressed mRNA in the absence of chemical substance (yeast gene YPR026W): 1.3
